Columns and labels:
HSP70 [1] = assay: Soluble HSP70 protein in patient plasma by ELISA; format: in vivo, human
[2] = IV, days 1, 4, 8, 11 of 21-day cycle, with AT7519 21 mg/m^2 (DL2)
HSP90 = conditions: cited from earlier work
HSP70 [3] = assay: HSP70 protein in patient PBMCs by western blot; format: in vivo, human; conditions: after onalespib alone (C0D4), all dose levels
[4] = Plasma pharmacokinetics in patients; format: in vivo, human; conditions: for AUC / Cmax / half-life: human, plasma
[5] = twice-weekly schedule, monotherapy; cited from earlier work
[6] = All dose levels, C0D1, onalespib alone, n = 27, geometric mean
[7] = All dose levels, C1D1, onalespib with AT7519, n = 24, geometric mean
[8] = All dose levels, C1D11, onalespib with AT7519, n = 16, geometric mean
[9] = DL1, C0D1, onalespib 40 mg/m^2 IV alone, n = 5, geometric mean
[10] = DL1, C1D1, onalespib 40 mg/m^2 with AT7519 21 mg/m^2, n = 4, geometric mean
[11] = DL1, C1D11, onalespib 40 mg/m^2 with AT7519 21 mg/m^2, n = 2, geometric mean
[12] = DL2, C0D1, onalespib 80 mg/m^2 IV alone, n = 17, geometric mean
[13] = DL2, C1D1, onalespib 80 mg/m^2 with AT7519 21 mg/m^2, n = 16, geometric mean
[14] = DL2, C1D11, onalespib 80 mg/m^2 with AT7519 21 mg/m^2, n = 11, geometric mean
[15] = DL3, C0D1, onalespib 80 mg/m^2 IV alone, n = 5, geometric mean
[16] = DL3, C1D1, onalespib 80 mg/m^2 with AT7519 27 mg/m^2, n = 4, geometric mean
[17] = DL3, C1D11, onalespib 80 mg/m^2 with AT7519 27 mg/m^2, n = 3, geometric mean

For `CC(C)c1cc(C(=O)N2Cc3ccc(CN4CCN(C)CC4)cc3C2)c(O)cc1O` [onalespib, (2,4-dihydroxy-5-isopropylphenyl)-[5-(4-methylpiperazin-1-ylmethyl)-1,3-dihydroisoindol-2-yl]methanone], the “HSP70 protein expression in plasma” value (HSP70 [1]; after onalespib alone (C0D4), all dose levels) was “Increased HSP70 protein expression”, the “Soluble HSP70 expression in plasma” value (HSP70 [1]; patient with palate adenocarcinoma (confirmed PR), after onalespib alone) was “increase in soluble HSP70 expression” and the “Maximally tolerated dose (MTD) of onalespib in the combination” value [2] was 80 mg/m^2. The IC50 (HSP90) was 700 pM, the “HSP70 protein expression in PBMCs” value (HSP70 [3]) was “Increased HSP70 protein expression” and the CL [4, 6] was 52.2 L/h/m^2. The Vz [4, 6] was 754 L/m^2, the CL [4, 7] was 58.4 L/h/m^2 and the Vz [4, 7] was 725 L/m^2. It also gave a CL [4, 8] of 61.0 L/h/m^2, a Vz [4, 8] of 706 L/m^2 and a CL [4, 9] of 51.3 L/h/m^2. For the same molecule, the Vz [4, 9] was 742 L/m^2, the CL [4, 10] was 64.4 L/h/m^2 and the Vz [4, 10] was 891 L/m^2. The CL [4, 11] was 65.6 L/h/m^2, the Vz [4, 11] was 855 L/m^2 and the CL [4, 12] was 53.8 L/h/m^2. The Vz [4, 12] was 804 L/m^2, the CL [4, 13] was 57.5 L/h/m^2 and the Vz [4, 13] was 721 L/m^2. The CL [4, 14] was 62.5 L/h/m^2, the Vz [4, 14] was 743 L/m^2 and the CL [4, 15] was 47.7 L/h/m^2. It also gave a Vz [4, 15] of 617 L/m^2, a CL [4, 16] of 56.7 L/h/m^2 and a Vz [4, 16] of 606 L/m^2. For the same molecule, the CL [4, 17] was 53.1 L/h/m^2, the Vz [4, 17] was 516 L/m^2 and the AUC ([4]; intravenous, AUC, DL1, C1D1, onalespib 40 mg/m^2 with AT7519 21 mg/m^2, n = 4, geometric mean) was 621 ng·h/mL. It also gave an AUC ([4]; intravenous, AUC, DL1, C1D11, onalespib 40 mg/m^2 with AT7519 21 mg/m^2, n = 2, geometric mean) of 610 ng·h/mL, an AUC ([4]; intravenous, AUC, DL2, C1D1, onalespib 80 mg/m^2 with AT7519 21 mg/m^2, n = 16, geometric mean) of 1390 ng·h/mL and an AUC ([4]; intravenous, AUC, DL2, C1D11, onalespib 80 mg/m^2 with AT7519 21 mg/m^2, n = 11, geometric mean) of 1280 ng·h/mL. The AUC ([4]; intravenous, AUC, DL3, C1D1, onalespib 80 mg/m^2 with AT7519 27 mg/m^2, n = 4, geometric mean) was 1410 ng·h/mL, the AUC ([4]; intravenous, AUC, DL3, C1D11, onalespib 80 mg/m^2 with AT7519 27 mg/m^2, n = 3, geometric mean) was 1510 ng·h/mL and the Cmax ([4]; intravenous, Cmax, DL1, C1D1, onalespib 40 mg/m^2 with AT7519 21 mg/m^2, n = 4, geometric mean) was 146 ng/mL. The Cmax ([4]; intravenous, Cmax, DL1, C1D11, onalespib 40 mg/m^2 with AT7519 21 mg/m^2, n = 2, geometric mean) was 155 ng/mL, the Cmax ([4]; intravenous, Cmax, DL2, C1D1, onalespib 80 mg/m^2 with AT7519 21 mg/m^2, n = 16, geometric mean) was 331 ng/mL and the Cmax ([4]; intravenous, Cmax, DL2, C1D11, onalespib 80 mg/m^2 with AT7519 21 mg/m^2, n = 11, geometric mean) was 355 ng/mL. The Cmax ([4]; intravenous, Cmax, DL3, C1D1, onalespib 80 mg/m^2 with AT7519 27 mg/m^2, n = 4, geometric mean) was 331 ng/mL, the Cmax ([4]; intravenous, Cmax, DL3, C1D11, onalespib 80 mg/m^2 with AT7519 27 mg/m^2, n = 3, geometric mean) was 424 ng/mL and the half-life ([4]; intravenous, t1/2,z, All dose levels, C0D1, onalespib alone, n = 27, geometric mean) was 10 h. The half-life ([4]; intravenous, t1/2,z, DL1, C1D1, onalespib 40 mg/m^2 with AT7519 21 mg/m^2, n = 4, geometric mean) was 9.6 h, the half-life ([4]; intravenous, t1/2,z, DL1, C1D11, onalespib 40 mg/m^2 with AT7519 21 mg/m^2, n = 2, geometric mean) was 9.4 h and the half-life ([4]; intravenous, t1/2,z, DL2, C1D1, onalespib 80 mg/m^2 with AT7519 21 mg/m^2, n = 16, geometric mean) was 8.7 h. For the same molecule, the half-life ([4]; intravenous, t1/2,z, DL2, C1D11, onalespib 80 mg/m^2 with AT7519 21 mg/m^2, n = 11, geometric mean) was 8.2 h, the half-life ([4]; intravenous, t1/2,z, DL3, C1D1, onalespib 80 mg/m^2 with AT7519 27 mg/m^2, n = 4, geometric mean) was 7.4 h and the half-life ([4]; intravenous, t1/2,z, DL3, C1D11, onalespib 80 mg/m^2 with AT7519 27 mg/m^2, n = 3, geometric mean) was 6.7 h. For the same molecule, the AUC ([4]; iv, 40 mg/m2, AUC, DL1, C0D1, onalespib 40 mg/m^2 IV alone, n = 5, geometric mean) was 780 ng·h/mL, the Cmax ([4]; iv, 40 mg/m2, Cmax, DL1, C0D1, onalespib 40 mg/m^2 IV alone, n = 5, geometric mean) was 193 ng/mL and the half-life ([4]; iv, 40 mg/m2, t1/2,z, DL1, C0D1, onalespib 40 mg/m^2 IV alone, n = 5, geometric mean) was 10 h. It also gave an AUC ([4]; iv, 80 mg/m2, AUC, DL2, C0D1, onalespib 80 mg/m^2 IV alone, n = 17, geometric mean) of 1490 ng·h/mL, an AUC ([4]; iv, 80 mg/m2, AUC, DL3, C0D1, onalespib 80 mg/m^2 IV alone, n = 5, geometric mean) of 1680 ng·h/mL and a Cmax ([4]; iv, 80 mg/m2, Cmax, DL2, C0D1, onalespib 80 mg/m^2 IV alone, n = 17, geometric mean) of 349 ng/mL. It also gave a Cmax ([4]; iv, 80 mg/m2, Cmax, DL3, C0D1, onalespib 80 mg/m^2 IV alone, n = 5, geometric mean) of 487 ng/mL, a half-life ([4]; iv, 80 mg/m2, t1/2,z, DL2, C0D1, onalespib 80 mg/m^2 IV alone, n = 17, geometric mean) of 10.4 h and a half-life ([4]; iv, 80 mg/m2, t1/2,z, DL3, C0D1, onalespib 80 mg/m^2 IV alone, n = 5, geometric mean) of 9 h. The “RP2D as individual agent” value [5] was 120 mg/m^2.

Reference: article PMC7954579 (Cancer chemotherapy and pharmacology, 2020)
